Results reported in patent US7291451B2, “Modulation of pericyte proliferation” (XOMA Technology Ltd., priority 2000, dated 2007).
“And” between values parts separate entries of the source, which are not always exact repeats. Identical values can stand only once. “Also recorded” adds a separate entry of the source.

Legend:
[1] = test system: human retinal pericytes (HRPC); test: Human retinal pericyte proliferation assay (Methylene blue, OD650); type: cell-based; details: for HRPC proliferation: initial experiment, treated once, medium not changed; for toxicity on HRPC: initial assay
Protocol: In addition to studies with primary cell cultures of bovine retinal pericytes described above, experiments were performed with a human cell line obtained from Clonetics (San Diego, Calif.) of retinal pericytes (catalog no. CC-2542 PyCRt). These human retinal pericytes (HRPC) were cultured in Dulbecco's modified Eagle's medium (DMEM, Gibco BRL, Grand Island, N.Y.) with 5.6 mM glucose and 20% fetal bovine serum (FBS, Gibco BRL, Grand Island, N.Y.).
Proliferation assays were performed as follows: HRPC were plated onto 24-well culture plates (3000 cells/well) in 5 or 10% FBS-DMEM with 5.6 mM glucose and incubated overnight. The cells were treated once with vehicle alone or with vehicle and several concentrations of XMP.627 ([SEQ ID NO: 4]), XMP.664 ([SEQ ID NO: 5]), XMP.679 ([SEQ ID NO: 3]), or XMP.728 ([SEQ ID NO: 6]) for 5 or 6 days. The medium was not changed, nor were additional amounts of test compounds added as described in the experiments of part A above. The cells were fixed and stained with Methylene blue and proliferation assayed by observation at OD650.

[2] = test system: bovine retinal endothelial cells (BREC); test: Cell growth assay (DNA content) in bovine retinal endothelial cells; type: cell-based
Protocol: Primary cultures of bovine retinal endothelial cells (BREC) were isolated by homogenization and a series of filtration steps as described in King et al., J. Clin. Invest., 1985, 75:1028-36. BREC were subsequently cultured with endothelial cell basal medium (EBM; Clonetics, San Diego, Calif.). supplemented with 10% plasma-derived horse serum (PDHS), 50 mg/l heparin, and 50 μg/ml endothelial cell growth factor (ECGF, Roche, Indianapolis, Ind.). Cells were characterized for homogeneity by their immunoreactivity with anti-factor VIII antibody. Cells remained morphologically unchanged under these conditions, as confirmed by light microscopy. Only cells from passages 2 through 7 were used for the experiments.
(§1) A cell growth assay was performed as follows: Cells were plated onto 12-well culture plates and incubated overnight. The cells were treated with vehicle, vascular endothelial growth factor (VEGF, R & D Systems, Minneapolis, Minn.) at 25 ng/ml, serum, compounds, or combinations thereof. The medium is changed during the incubation period, with fresh medium and fresh test compound added every 2 days. After incubation for indicated time period at 37° C., the cells were lysed in 0.1% SDS and DNA content was measured by means of Hoechst-33258 dye and a fluorometer (model TKO-100, Hoefer Scientific Instruments, San Francisco, Calif.). It has been shown that total cellular DNA content measured in this manner correlates closely with actual cell number as determined by hemocytometer counting of trypsinized cells.
(§2) Determinations were performed in triplicate and all experiments were repeated at least three times. Results are expressed as the mean ±standard deviation, unless otherwise indicated. Statistical analysis employed Student's t-test or analysis of variance to compare quantitative data populations with normal distributions and equal variance. Data were analyzed using the Mann-Whitney rank sum test or the Kruskal-Wallis test for populations with non-normal distributions or unequal variance. A P-value of <0.05 was considered statistically significant.

[3] = test system: MAP kinase phosphorylation; test: MAP kinase phosphorylation in BRPC; type: cell-based, bovine; details: 75 μg/ml
Protocol: Experiments were also performed in which the level of MAP kinase phosphorylation was determined in BRPC treated with 75 μg/ml rBPI21 or 5 μg/ml XMP.679. […] These observations indicate that exemplary BPI protein products rBPI21 and, to a lesser extent, XMP.679, enhance MAP kinase phosphorylation in BRPC.

[4] = test system: bovine retinal pericytes (BRPC); test: Cell growth assay (DNA content, cell number) in bovine retinal pericytes; type: cell-based
Protocol: as §1, §2
Primary cultures of bovine retinal pericytes (BRPC) were isolated by homogenization and a series of filtration steps as described in King et al., J. Clin. Invest., 1985, 75:1028-36. BRPC were cultured in Dulbecco's modified Eagle's medium (DMEM, Gibco BRL, Grand Island, N.Y.) with 5.5 mM glucose and 20% fetal bovine serum (FBS, Gibco BRL, Grand Island, N.Y.). Cells were characterized for homogeneity by their immunoreactivity with monoclonal antibody 3G5 [Nayak et al., J. Exp. Med. 1988, 167:1003-15]. Cells remained morphologically unchanged under these conditions, as confirmed by light microscopy. Only cells from passages 2 through 7 were used for the experiments.
A cell growth assay was performed as described above in Example 1 and the medium was changed, with fresh medium and fresh test compound added every 2 or 3 days, preferably every 2 days. […] At 20% FBS a six to seven fold increase of total DNA was detected.

[5] = test system: Bovine retinal pigment epithelial cells (RPEC); test: Cell growth assay in bovine retinal pigment epithelial cells; type: cell-based; details: 75 μg/ml
Protocol: as §1
Bovine retinal pigment epithelial cells (RPEC) were isolated by gentle scraping after removal of the neural retina and incubation with 0.2% collagenase as described in King et al., Diabetes, 1987, 36:1460-7. RPEC were cultured in DMEM with 5.5 mM glucose and 10% calf serum (CS, Gibco BRL, Grand Island, N.Y.). Cells were cultured in 5% CO2 at 37° C., and media were changed every other days. Cells were characterized for their homogeneity by immunoreactivity with anti-cytokeratin antibody for RPEC. […]

Molecule: XMP.728: BPI-derived peptide, SEQ ID NO: 6 (KLFKAQAKAKG; XMP.728; listed as Homo sapiens)
- effect on HRPC proliferation ([1]; 10% FBS): to lesser extent
- effect on HRPC proliferation ([1]; only at approximately 5 μg/ml, 5% FBS): increased HRPC proliferation

Molecule: XMP.629: BPI protein product, SEQ ID NO: 12 (KLFRAQAKA; XMP.629; listed as Homo sapiens)
- HRPC proliferation [1]: enhanced the proliferation of HRPC

Molecule: XMP.768: BPI protein product, SEQ ID NO: 14 (KLFRAQAK; XMP.768; listed as Homo sapiens)
- HRPC proliferation [1]: enhanced the proliferation of HRPC

Molecule: XMP.365: BPI protein product, SEQ ID NO: 11 (KWLIQLFHKK; XMP.365; listed as Homo sapiens)
- toxicity on HRPC [1]: some toxicities

Molecule: XMP.718: BPI protein product, SEQ ID NO: 10 (KLFRKA; XMP.718; listed as Homo sapiens)
- toxicity on HRPC [1]: some toxicities

Molecule: XMP.711: BPI protein product, SEQ ID NO: 7 (KLARK; XMP.711; listed as Homo sapiens)
- HRPC proliferation [1]: little or no proliferation

Molecule: XMP.861: BPI protein product, SEQ ID NO: 9 (KLFRA; XMP.861; listed as Homo sapiens)
- HRPC proliferation [1]: little or no proliferation

Molecule: XMP.852: BPI protein product, SEQ ID NO: 8 (KLFRAQ; XMP.852; listed as Homo sapiens)
- HRPC proliferation [1]: little or no proliferation

Molecule: VEGF [reference compound]
- increase of DNA content ([2]; VEGF alone at 25 ng/ml): 3 to 5 fold and 3 to 4 fold

Molecule: XMP.676: BPI protein product, SEQ ID NO: 13 (KAVIQVVAKK; XMP.676; listed as Homo sapiens)
- HRPC proliferation [1]: enhanced the proliferation of HRPC

Molecule: XMP.627: BPI-derived peptide, SEQ ID NO: 4 (KLFRAQAKAKG; XMP.627; listed as Homo sapiens)
- concentration of maximum HRPC proliferation ([1]; 5% FBS): approximately 5 μg/ml
- effect on HRPC proliferation ([1]; 10% FBS): did increase HRPC proliferation
- effect on HRPC growth ([1]; above 10 μg/ml, 5% FBS): slight growth inhibitory effect
- effect on HRPC proliferation ([1]; approximately 0.5, 1, 5, 8 μg/ml, 5% FBS): increased HRPC proliferation in a dose responsive manner

Molecule: XMP.664: BPI-derived peptide, SEQ ID NO: 5 (KLFRAQAK; XMP.664; listed as Homo sapiens)
- effect on HRPC growth ([1]; 10 μg/ml and higher, 5% FBS): slight growth inhibitory effect
- effect on HRPC proliferation ([1]; 10 μg/ml, 10% FBS): increased HRPC proliferation
- concentration of maximum HRPC proliferation ([1]; 5% FBS): approximately 5 μg/ml
- effect on HRPC proliferation ([1]; above 10 μg/ml, 10% FBS): inhibited proliferation
- effect on HRPC proliferation ([1]; approximately 0.5, 1, 5 μg/ml, 5% FBS): increased HRPC proliferation in a dose responsive manner

Molecule: XMP.851: BPI protein product, SEQ ID NO: 15 (KLFRAQA; XMP.851; listed as Homo sapiens)
- HRPC proliferation [1]: enhanced the proliferation of HRPC

B1: rBPI21: recombinant N-terminal BPI analog, amino acids 1 to approximately 193 or 199, cysteine 132 substituted with alanine (protein, UniProt P17213 32-224, looked up, variant C132A)
chain: VNPGVVVRISQKGLDYASQQGTAALQKELKRIKIPDYSDSFKIKHLGKGHYSFYSMDIREFQLPSSQISMVPNVGLKFSISNANIKISGKWKAQKRFLKMSGNFDLSIEGMSISADLKLGSNPTSGKPTITASSCSSHINSVHVHISKSKVGWLIQLFHKKIESALRNKMNSQVCEKVTNSVSSELQPYFQTL
- time of maximum MAP kinase phosphorylation after addition [3]: 15 min
- effect on MAP kinase phosphorylation ([3]; 1 to 60 minutes): increased MAP kinase phosphorylation over time
- maximum MAP kinase phosphorylation compared with 20% FBS ([3]; 15 minutes): nearly equaled the effect of 20% FBS
- stimulation of proliferation ([4]; 75 μg/mL, 5, 10 or 15% FBS): 3 fold
- increase of DNA above basal level ([4]; 75 μg/ml, 5% FBS): 5 fold
- maximum growth compared with 20% FBS ([4]; 75 μg/ml, 5% FBS): almost equaled the growth effect of 20% FBS
- growth compared with 20% FBS ([4]; 75 μg/ml, 15% FBS): increased the growth greater then 20% FBS
- effect on DNA content ([4]; 5, 25, 75 μg/ml, 5% FBS): increased DNA content in a dose responsive manner
- total number of cells per well ([4]; 5, 25, 75 μg/ml, 5% FBS): increased in a dose responsive manner
- effect on growth ([4]; 5, 25 and 75 μg/ml, 10% FBS): induced the growth of pericyte
- growth compared with 20% FBS ([4]; 25 and 75 μg/ml, 10% FBS): appeared to improve growth above that of 20% FBS
- effect on DNA content ([2]; 5 μg/ml compound, with and without VEGF): did not have a significant effect
- effect on DNA content (VEGF-dependent growth) ([2]; VEGF 25 ng/ml plus 25 μg/ml compound): did not have a significant effect
- effect on DNA content (VEGF-dependent growth) ([2]; VEGF 25 ng/ml plus 75 μg/ml compound): decreased significantly the DNA content; also recorded: prevented VEGF-dependent growth
- effect on total DNA content (growth) ([2]; compound alone without VEGF, 25 or 75 μg/ml): did not have a significant effect
- HRPC proliferation [1]: little or no proliferation
- effect on RPEC growth [5]: had no effect
